Measurements from patent publication US20030216569A1, “Method of making HIV protease inhibitors” (priority 1993, published 2003).
≈ marks a conversion by molar mass, not a printed value. Where “and” joins values, the source holds several entries; their conditions need not be identical. Equal entries are not always repeated.

Experiments:
[1] = tested on: HIV-1 isolates IIIB and/or RF in MT-2 cells; experiment: SRI primary anti-HIV screen, MTT assay of inhibition of HIV-induced cell killing in MT2 cells; format: cell-based; details: for IC50: Human immunodeficiency virus 1, IIIB, MT2, read-out: SRI MT2 IC50 ng/ml, MT2 cells; for SRI MT2 IC50: MT2 cells
Text: I. Primary Drug Screening of Anti-HIV Compounds at Southern Research Institute (SRI) (Results recorded in Table 1 are designated “SRI CEM (ng/ml)” or “SRI MT2 (ng/ml)”)
(§1) A. Principle of MTT Assay:
(§2) SRI has an established program for the primary antiviral analysis of compounds in microtiter assays which measures the ability of a selected compound to inhibit HIV-induced cell killing. This assay involves the conversion of the tetrazolium dye MTT to a colored formazan product by mitochondrial enzymes in metabolically active cells. This assay system is used at SRI to screen over 30,000 compounds per year. Briefly, the assay involves the infection of CEM or MT2 cells in round bottom 96-well plates. The compound of interest is added just prior to infection. Following 6 days of incubation at 37° C. the plates are stained with MTT. The results of the assay are quantitated spectrophotometrically on a Molecular Devices Vmax plate reader. The data are analyzed by linear regression utilizing an in-house software program to calculate antiviral activity (IC25, IC50, IC95) and toxicity (TC25, TC50, TC95) as well as other values.
(§3) Primary antiviral assays are routinely performed in CEM or MT-2 cells.
(§4) B. Standard Screening Assays in CEM and MT-2 Cells
(§5) 1. Compound dilution and delivery to the plates
Drugs are solubilized in the appropriate vehicle such as distilled water or DMSO if necessary. Latex gloves, lab coats and masks are used during all phases of the handling process to prevent exposure to potentially harmful agents. The drug is prepared at the appropriate concentration and stored at −20° C. until used by the screening laboratory. The first dilution of each compound is made in a dilution tube with medium to yield a concentration two-fold that of the highest test concentration. Sterile titer tubes are then used to make serial one half-log dilutions of each compound. Following drug dilution, the diluted compound is added to the appropriate well of a 96-well microtiter plate. […] When testing includes only six dilutions, two drugs can be assayed on a single microtiter plate. The drugs are added to the plate in a final volume of 100 microliters.
(§6) During the time the drug dilutions are prepared, cells are washed and counted. Viability is monitored by trypan blue dye exclusion and assays are not performed if the viability falls below 90%. Cells are maintained in an exponential growth phase and are split 1:2 on the day prior to assay to assure exponential growth rate.
(§7) For the primary screen, the cell lines utilized are CEM and MT-2. Unless otherwise indicated, the medium used is RPMI 1640 with 10% heat-inactivated fetal calf serum (FBS), glutamine and antibiotics.
(§8) Cells are propagated at 37° C. in an atmosphere of 5% CO2 in air. The virus employed for this work is HIV-1 isolates IIIB and/or RF, which are prepared by an acute infection process.
(§9) Briefly, virus-infected cells are pelleted on a daily basis beginning at three days post-infection until the virus has killed all of the cells in the culture. Reverse transcriptase activity and p24 ELISA are used to identify pools with the greatest amout of virus.
(§10) These 24-hour harvests are pooled, filtered and frozen at −90° C. Prior to use in the assay, the infectious pool of virus is titered on all available cell lines in order to determine the amount of virus required in the antiviral assay.
In general, pools produced by the acute infection method require the addition of one microliter of infectious virus per well resulting in the screening of drugs at a multiplicity of infection of 0.01. In this manner, enough virus is prepared and frozen to complete over one thousand microtiter plates, allowing the testing of up to two thousand compounds from a single stock of infectious virus. The use of a single stock of virus for a long period of testing has very favorable effects on the repeatability of the assay systems. […]

[2] = tested on: HIV-1 isolates IIIB and/or RF in CEM cells; experiment: SRI primary anti-HIV screen, MTT assay of inhibition of HIV-induced cell killing in CEM cells; format: cell-based; details: for SRI CEM IC50: CEM cells; for IC50: Human immunodeficiency virus 1, IIIB, CCRF-CEM, read-out: SRI CEM IC50 ng/mL, CEM cells
Protocol: as §1
as §2, with “This” for “SRI has an established program for the primary antiviral analysis of compounds in microtiter assays which measures the ability of a selected compound to inhibit HIV-induced cell killing. This”
as §3, §4, §5
Drugs are solubilized in the appropriate vehicle such as distilled water or DMSO if necessary. Latex gloves, lab coats and masks are used during all phases of the handling process to prevent exposure to potentially harmful agents. The drug is prepared at the appropriate concentration and stored at −20° C. until used by the screening laboratory. The first dilution of each compound is made in a dilution tube with medium to yield a concentration two-fold that of the highest test concentration. Sterile titer tubes are then used to make serial one half-log dilutions of each compound. Following drug dilution, the diluted compound is added to the appropriate well of a 96-well microtiter plate. Up to 12 dilutions can be assayed conveniently in triplicate on a single plate with all appropriate controls including cell control, virus control, toxicity control, drug color control, medium control and plastic (background) control. When testing includes only six dilutions, two drugs can be assayed on a single microtiter plate. The drugs are added to the plate in a final volume of 100 microliters.
as §6, §7, §8, §9, §10
In general, pools produced by the acute infection method require the addition of one microliter of infectious virus per well resulting in the screening of drugs at a multiplicity of infection of 0.01. In this manner, enough virus is prepared and frozen to complete over one thousand microtiter plates, allowing the testing of up to two thousand compounds from a single stock of infectious virus.
Virus infection of the CEM and MT-2 cells for the antiviral assay is carried out in a bulk infection process.

Structure (SMILES)	IC50 [1]	SRI MT2 IC50 [1]	SRI CEM IC50 [2]	IC50 [2]
CC(C)(C)NC(=O)C1CC2CCCCC2CN1CC(O)C(Cc1ccccc1)NC(=O)c1cccc(O)c1F (stereo not drawn) [Example 1, [3S-(3R*,4aR*,8aR*,2′S*,3′R*)]-2-[2′-Hydroxy-3′-phenylmethyl-4′-aza-5′-oxo-5′-(2″-fluoro-3″-hydroxyphenyl)pentyl]decahydroisoquinoline-3-N-t-butylcarboxamide]	1310 ng/mL (≈ 2.43 µM)	1.5 µg/mL	1.38 µg/mL	1000 ng/mL (≈ 1.85 µM)
CC(C)(C)NC(=O)C1CC2CCCCC2CN1CC(O)C(Cc1ccccc1)NC(=O)c1cccnc1Cl (stereo not drawn) [Example 2, [3S-(3R*,4aR*,8aR*,2′S*,3′R*)]-2-[2′-Hydroxy-3′-phenylmethyl-4′-aza-5′-oxo-5′-(2″-chloro-pyrid-3″-yl)pentyl] decahydroisoquinoline-3-N-t-butylcarboxamide]	1580 ng/mL (≈ 2.92 µM)	1.63 µg/mL	1.58 µg/mL	1380 ng/mL (≈ 2.55 µM)
CCc1c(O)cccc1C(=O)NC(Cc1ccccc1)C(O)CN1CC2CCCCC2CC1C(=O)NC(C)(C)C (stereo not drawn) [Example 3, [3S-(3R*,4aR*,8aR*,2′S*,3′R*)]-2-[2′-Hydroxy-3′-phenylmethyl-4′-aza-5′-oxo-5′-(2″-ethyl-3″-hydroxyphenyl)pentyl] decahydroisoguinoline-3-N-t-butylcarboxamide]	21.3 ng/mL (≈ 0.0387 µM)	0.0215 µg/mL	0.0113 µg/mL	15.2 ng/mL (≈ 0.0276 µM)
CC(C)(C)NC(=O)C1CC2CCCCC2CN1CC(O)C(Cc1ccccc1)NC(=O)c1ccc[n+]([O-])c1 (stereo not drawn) [Example 5, [3S-(3R*,4aR*,8aR*,2′S*,3′R*)]-2-[2′-Hydroxy-3′-phenylmethyl-4′-aza-5′-oxo-5′-(pyrid-3″yl-N-oxidyl)pentyl] decahydroisoquinoline-3-N-t-butylcarboxamide]	7800 ng/mL (≈ 14.9 µM)	5.03 µg/mL	4.43 µg/mL	4970 ng/mL (≈ 9.51 µM)
CC(C)(C)NC(=O)C1CC2CCCCC2CN1CC(O)C(Cc1ccccc1)NC(=O)c1cccc(O)c1Cl (stereo not drawn) [Example 11, [3S-(3R*,4aR*,8aR*,2′S*,3′R*)]-2-[2′-Hydroxy-3′-phenylmethyl-4′-aza-5′-oxo-5′-(2″-chloro-3″-hydroxyphenyl)pentyl] decahydroisoquinoline-3-N-t-butylcarboxamide]	649 ng/mL (≈ 1.17 µM)	0.387 µg/mL	0.338 µg/mL	420 ng/mL (≈ 0.755 µM)
Cc1c(O)cccc1C(=O)NC(Cc1ccccc1)C(O)CN1CC2CCCCC2CC1C(=O)NC(C)(C)C (stereo not drawn) [Example 12, [3S-(3R*,4aR*,8aR*,2′S*,3′R*)]-2-[2′-Hydroxy-3′-phenylmethyl-4′-aza-5′-oxo-5′-(2″-methyl-3″-hydroxyphenyl)pentyl] decahydroisoquinoline-3-N-t-butylcarboxamide]		0.0243 µg/mL	0.0118 µg/mL	16.5 ng/mL (≈ 0.0308 µM)
CC(C)(C)NC(=O)C1CC2CCCCC2CN1CC(O)C(Cc1ccccc1)NC(=O)c1ccccc1C(F)(F)F (stereo not drawn) [Example 15, [3S-(3R*,4aR*,8aR*,2′S*,3′R*)]-2-[2′-Hydroxy-3′-phenylmethyl-4′-aza-5′-oxo-5′-(2″-trifluoromethylphenyl)pentyl] decahydroisoquinoline-3-N-t-butylcarboxamide]	1680 ng/mL (≈ 2.93 µM)	1.47 µg/mL	1.59 µg/mL	1430 ng/mL (≈ 2.49 µM)
CC(C)(C)NC(=O)C1CC2CCCCC2CN1CC(O)C(Cc1ccccc1)NC(=O)c1c(Cl)ccc(O)c1Cl (stereo not drawn) [Example 17, [3S-(3R*,4aR*,8aR*,2′S*,3′R*)]-2-[2′-Hydroxy-3′-phenylmethyl-4′-aza-5′-oxo-5′-(2″,6″-dichloro-3″-hydroxyphenyl)pentyl] decahydroisoquinoline-3-N-t-butylcarboxamide]		8.99 µg/mL and 5.39 µg/mL	2.9 µg/mL and 2.5 µg/mL	
Cc1c(N)cccc1C(=O)NC(Cc1ccccc1)C(O)CN1CC2CCCCC2CC1C(=O)NC(C)(C)C (stereo not drawn) [Example 18, [3S-(3R*,4aR*,8aR*,2′S*,3′R*)]-2-[2′-Hydroxy-3′-phenylmethyl-4′-aza-5′-oxo-5′-(2″-methyl-3″-aminophenyl)pentyl] decahydroisoquinoline-3-N-t-butylcarboxamide]	254 ng/mL (≈ 0.475 µM)	0.232 µg/mL	0.231 µg/mL	256 ng/mL (≈ 0.479 µM)
CC(C)c1c(O)cccc1C(=O)NC(Cc1ccccc1)C(O)CN1CC2CCCCC2CC1C(=O)NC(C)(C)C (stereo not drawn) [Example 20, [3S-(3R*,4aR*,8aR*,2′S*,3′R*)]-2-[2′-Hydroxy-3′-phenylmethyl-4′-aza-5′-oxo-5′-(2″-iospropyl-3″-hydroxyphenyl)pentyl] decahydroisoquinoline-3-N-t-butylcarboxamide]	144 ng/mL (≈ 0.255 µM)			153 ng/mL (≈ 0.271 µM)
CCCCc1c(O)cccc1C(=O)NC(Cc1ccccc1)C(O)CN1CC2CCCCC2CC1C(=O)NC(C)(C)C (stereo not drawn) [Example 21, [3S-(3R*,4aR*,8aR*,2′S*,3′R*)]-2-[2′-Hydroxy-3′-phenylmethyl-4′-aza-5′-oxo-5′-(2″-butyl-3′″-hydroxyphenyl)pentyl] decahydroisoquinoline-3-N-t-butylcarboxamide]	427 ng/mL (≈ 0.739 µM)			443 ng/mL (≈ 0.767 µM)
CCCc1c(O)cccc1C(=O)NC(Cc1ccccc1)C(O)CN1CC2CCCCC2CC1C(=O)NC(C)(C)C (stereo not drawn) [Example 22, [3S-(3R*,4aR*,8aR*,2′S*,3′R*)]-2-[2′-Hydroxy-3′-phenylmethyl-4′-aza-5′-oxo-5′-(2″-propyl-3″-hydroxyphenyl)pentyl] decahydroisoquinoline-3-N-t-butylcarboxamide]	53 ng/mL (≈ 0.094 µM)			136 ng/mL (≈ 0.241 µM)
Cc1c(O)cccc1C(=O)NC(Cc1ccccc1)C(O)CN1CC2CCCCC2CC1C(=O)NC(C)(C)C (stereo not drawn) [Example 23, [3S-(3R*,4aR*,8aR*,2′S*,3′R*)]-2-[2′-Hydroxy-3′-phenylmethyl-4′-aza-5′-oxo-5′-(2″-methyl-3″-hydroxyphenyl)pentyl] decahydroisoquinoline-3-N-t-butylcarboxamide]		0.00627 µg/mL	0.00862 µg/mL	
